Assay results: patent US20140057788A1, “METHODS OF INHIBITING ETHYLENE RESPONSES IN PLANTS USING DICYCLOPROPENE COMPOUNDS” (North Carolina State University, priority 2007, published 2014)

Columns and labels:
pea plants = test: Effect on etiolated pea plant growth in the presence of ethylene; assay type: in vivo; details: pea plants grown in the presence of 1 ppm of ethylene, FIG. 1
From the text: FIG. 1. Effect of 1,6-dicyclopropenyl-hexane on etiolated plea plant growth.

bananas = test: Protection of bananas from ethylene responses; assay type: in vivo, banana
ethylene responses = test: Anti-ethylene activity when applied as a gas; assay type: in vivo
Volatility = assay type: physicochemical

C1=C(CCCCCCC2=CC2)C1 [1,6-dicyclopropenyl-hexane]
anti-ethylene activity (pea plant growth) (pea plants): significant anti-ethylene activity | duration of protection from ethylene responses (bananas): at least 42 days | active concentration (ethylene responses; applied as a gas): 0.3 nL L^−1 | efficiency at different temperatures (ethylene responses; in vivo): work efficiently at different temperatures | volatility (Volatility): volatile
